One data set deals with Caspase 9 (SKOV-3). Briefly: Induction of caspase 9 activity (CaspaseGlo), SKOV-3. The format is cell-based. The following applies: Homo sapiens, SK-OV-3. As for the experimental part:
(§1) Candidate compounds are tested in 384-well plates for effects on cell viability in the presence or absence of an appropriate conventional anticancer drug. Cell viability is indirectly monitored in the first instance using CellTiterGlo (Promega Corp., Madison, WI) (Table D). To determine if cell death is apoptotic, the induction of caspase activity is assessed utilizing the CaspaseGlo Assay system (Promega Corp., Madison, WI) (Table E). Cell viability is monitored 1 to 3 days after addition of compounds and conventional drugs. […] A compound of any of the formulae as disclosed herein is evaluated in combination with said anticancer drug to determine which ML-IAP antagonist can sensitize most efficaciously. Select candidate compounds are tested in 14 point drug dose response (DDR) curves in a 384-well format in order to establish potency in combination with decreasing concentrations of lung cancer relevant drug regimens. Furthermore, checker-board titrations of a conventional drug and the candidate molecules are performed to search for synergy (using ISOBOLOGRAM analysis). Compounds and combinations as described herein are also tested for cytotoxicity against normal human cells (e.g. primary fibroblasts, lymphocytes, hepatocytes, epithelial and endothelial cells) using known methods.
(§2) The induction of caspase activities was tested with a compound as disclosed in Table E. The activities are indicated according to the following legend: […]

For another data set, the system named is OVCAR-4. The data set can be described thus: Cell viability (CellTiterGlo), OVCAR-4. As to conditions: Homo sapiens. The format is cell-based. As for the experimental part:
as §1
(§3) Cell viability was evaluated following treatment with a compound as disclosed in Table D. Viability of cancer cells following treatment is indicated according to the following legend: […]
For orientation: Cellular ATP, detected with luciferase, serves as a proxy for viable cell number.

For the next data set, the target named is XIAP-BIR3 (Homo sapiens (Human), UniProt P98170). Briefly: Fluorescence polarization (FP) assay, inhibition of SMAC peptide binding. As for the experimental part:
Compounds of the present disclosure were evaluated for potency and selectivity in a fluorescence polarization (FP) assay that measures inhibition of SMAC peptide binding to ML-IAP. To measure SMAC peptide binding, multi-well plate format FP assays based on the ability of SMAC peptides to bind the BIR domains of several IAPs are used to generate IC50 and Ki values for analogues. The FP assays utilize plasmid constructs encoding various full length IAPs or fragments for expression as either GST or His6-fusion proteins in bacteria. Compounds are evaluated for activity against several members of the IAP family, including the BIR domains of XIAP, cIAP1 and cIAP2 in order to generate selectivity profiles of the compounds disclosed herein. These assays also enable the identification and characterization of potency profiles of ML-IAP binding.
Activity of the compounds are indicated according to the following legend: […]

Data set [1] can be described thus: In vivo PK plasma exposure in mice. As for the experimental part:
Pharmacokinetic (PK) studies are performed in vivo in mice for compounds as described herein. Standard formulations are evaluated, including hydroxypropyl methylcellulose, carboxymethylcellulose, and polyethylene glycol. For intravenous studies, compounds are administered via indwelling catheters in jugular vein and samples collected from the carotid artery. These experiments provide basic pharmacokinetic parameters including peak plasma concentration (Cmax), bioavailability (% F), exposure (AUC), half-life (t½), clearance (CL), volume of distribution (Vd), and brain levels. To measure bioavailability, a compound as described herein is administered to three animals/group, both orally (10 mg/kg) and intravenously (1 mg/kg). Intraperitoneally administration is also assessed in order to determine both brain and plasma levels of compounds.
The compounds described herein were tested in vivo in mice to measure PK plasma exposure as shown in Table F. The PK plasma values are indicated according to the following legend: […]

In the next data set the test system is Caspase 3/7 (OVCAR-4). The data set can be described thus: Induction of caspase 3/7 activity (CaspaseGlo), OVCAR-4. As to conditions: Homo sapiens. The format is cell-based. As for the experimental part: as §1, §2
The next data set relates to Caspase 3/7 (SKOV-3). Briefly: Induction of caspase 3/7 activity (CaspaseGlo), SKOV-3. The format is cell-based. As to conditions: Homo sapiens, SK-OV-3. As for the experimental part:
as §1, §2

The test system of the next data set is SKOV-3 cancer cell lines. The data set can be described thus: SKOV-3 cell viability after treatment with 10 μM test compound. In kind it is cell-based. As to conditions: for viability at 10 µM: Homo sapiens, SK-OV-3, 10 micromolar test compound, SKOV-3 cells. As for the experimental part: SKOV-3 cancer cell lines were treated with a test compound, either as a pure enantiomer or a mixture of stereoisomers, at a concentration of 10 μM. Cell viability was evaluated following treatment with a compound as disclosed in Table B. Viability of cancer cells following treatment is indicated according to the following legend:
A=0-25% viability B=26-50% viability C=>50% viability

The test system of the next data set is SKOV-3. The data set can be described thus: Cell viability (CellTiterGlo), SKOV-3. The format is cell-based. The following applies: Homo sapiens, SK-OV-3. As for the experimental part:
as §1, §3

The subject of a further data set is H460 lung cancer cells. Briefly: Sensitization of lung cancer cells to standard of care treatment (vinorelbine). The format is cell-based. As to conditions: combination with vinorelbine, FIG. 1. As for the experimental part: In order to assess the role of ML-IAP antagonists in cancer treatment, H460 lung cancer cells are treated with a standard of care treatment (e.g., vinorelbine) alone or in combination with a selective ML-IAP antagonist. […] The leftward shift in the dose dependent response (DDR) curve indicates a resensitization of lung cancer cells to the anti-cancer agent. Furthermore, TNF induction is absent following treatment with a compound described herein in breast cancer MDA-MB-231 cells. This effect provides a substantial advantage clinically as it avoids an inappropriate inflammatory response.

Structures are written as SMILES. Structures can show the parent of a compound that is named as a salt. Some results are limits rather than exact numbers.

XIAP-BIR3, sequence (P98170 241-356): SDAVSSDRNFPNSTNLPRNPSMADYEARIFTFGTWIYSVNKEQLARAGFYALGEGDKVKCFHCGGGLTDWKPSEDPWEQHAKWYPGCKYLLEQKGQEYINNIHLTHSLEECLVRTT

Take `CN[C@@H](C)C(=O)N[C@H]1CCOC2CC3(CC=CC3)C(C(=O)N[C@@H]3CCCc4ccccc43)N2C1=O` (stereo partly drawn) [Compound 81, (4'S)-4′-((S)-2-(methylamino)propanamido)-5′-oxo-N—((R)-1,2,3,4-tetrahydronaphthalen-1-yl)-2′,3′,4′,5′,9′,9a′-hexahydro-7′H-spiro[cyclopentane-1,8′-pyrrolo[2,1-b][1,3]oxazepin]-3-ene-7′-carboxamide hydrochloride]: the EC50 in the data set with Caspase 9 (SKOV-3), with Caspase 3/7 (OVCAR-4) and in the data set with Caspase 3/7 (SKOV-3) was 1 to 10 nM in each case. Also, the IC50 – broadly, the concentration needed to halve the response being measured – lay in the range of 10 to 100 nM with OVCAR-4 and 1 to 10 nM in the data set with SKOV-3. Moreover, at XIAP-BIR3, the Ki (usually the dissociation constant of the complex between target and ligand, obtained from inhibition or displacement) fell in the range of 10 to 100 nM. The “PK plasma exposure at 1 h (IP, 10 mg/kg)” value in data set [1] was “iii (iii=500-1000 nM)”. For the same compound, the viability (usually a per cent measure of how many cells are alive, often set against a control) at 10 µM with SKOV-3 cancer cell lines lay within 0 to 25%.

With `CN[C@@H](C)C(=O)N[C@@H]1C(=O)N2[C@H](CC(C)(C)[C@H]2C(=O)N[C@@H]2CCCc3ccccc32)OC2CCCCC21` (single isomer, unassigned) [Compound 65, hydrochloride], the EC50 in the data set on Caspase 9 (SKOV-3), with Caspase 3/7 (OVCAR-4) and in the data set with Caspase 3/7 (SKOV-3) was 1 to 10 nM throughout. In addition, the IC50 in the data set on OVCAR-4 and in the data set on SKOV-3 was 10 to 100 nM throughout. The compound also yielded a Ki at XIAP-BIR3 of 10 to 100 nM. Besides, the “PK plasma exposure at 1 h (IP, 10 mg/kg)” value in [1] is “iii (iii=500-1000 nM)”. Further, the viability at 10 µM in the data set with SKOV-3 cancer cell lines was 0 to 25%.

As to `CN[C@@H](C)C(=O)N[C@H]1CCS[C@H]2CC(C)(C)C(C(=O)N[C@@H]3CCCc4ccccc43)N2C1=O` (stereo partly drawn) [Compound A, (4S,9aS)-8,8-dimethyl-4-((S)-2-(methylamino)propanamido)-5-oxo-N—((R)-1,2,3,4-tetrahydronaphthalen-1-yl)octahydropyrrolo[2,1-b][1,3]thiazepine-7-carboxamide hydrochloride], the EC50 (commonly the concentration giving half of the maximal effect) in the data set with Caspase 9 (SKOV-3) was < 1 nM; in the data set with Caspase 3/7 (OVCAR-4), 1 to 10 nM; in the data set with Caspase 3/7 (SKOV-3), 1 to 10 nM. Besides, the half-inhibitory concentration (IC50) with OVCAR-4 and in the data set on SKOV-3 was 1 to 10 nM each time. This compound showed a Ki at XIAP-BIR3 of 10 to 100 nM. The “PK plasma exposure at 1 h (IP, 10 mg/kg)” value in data set [1] was “iii (iii=500-1000 nM)”. Moreover, the “sensitizing effect on lung cancer cells” value in the data set with H460 lung cancer cells is on record as “sensitizing effect”.

As for `CN[C@@H](C)C(=O)N[C@H]1CCOC2CC3(CCCC3)C(C(=O)N[C@@H]3CCCc4ccccc43)N2C1=O` (stereo partly drawn) [Compound 82, (4'S)-4′-((S)-2-(methylamino)propanamido)-5′-oxo-N—((R)-1,2,3,4-tetrahydronaphthalen-1-yl)hexahydro-7′H-spiro[cyclopentane-1,8′-pyrrolo[2,1-b][1,3]oxazepine]-7′-carboxamide hydrochloride], the EC50 with Caspase 9 (SKOV-3), with Caspase 3/7 (OVCAR-4) and in the data set on Caspase 3/7 (SKOV-3) was 1 to 10 nM throughout. Besides, the IC50 with OVCAR-4 and with SKOV-3 was 1 to 10 nM in each case. The Ki on XIAP-BIR3 lay within 10 to 100 nM. Further, the “PK plasma exposure at 1 h (IP, 10 mg/kg)” value in [1] was “iv (iv=>1000 nM)”. In the data set with SKOV-3 cancer cell lines, this compound showed a viability at 10 µM of 0 to 25%.

Consider `CCC1(CC)C[C@@H]2SCC[C@H](NC(=O)[C@H](C)NC)C(=O)N2C1C(=O)N[C@@H]1CCCc2ccccc21` (mixture of isomers) [Compound 38, (4S,9aS)-8,8-diethyl-4-((S)-2-(methylamino)propanamido)-5-oxo-N—((R)-1,2,3,4-tetrahydronaphthalen-1-yl)octahydropyrrolo[2,1-b][1,3]thiazepine-7-carboxamide hydrochloride], for which the EC50 with Caspase 9 (SKOV-3), with Caspase 3/7 (OVCAR-4) and with Caspase 3/7 (SKOV-3) was 1 to 10 nM in each case. In addition, the 50% inhibitory concentration (IC50) with OVCAR-4 and in the data set with SKOV-3 was 10 to 100 nM each time. Also, the Ki at XIAP-BIR3 is > 100 nM. In data set [1], the “PK plasma exposure at 1 h (IP, 10 mg/kg)” value is on record as “iii (iii=500-1000 nM)”. For the same compound, the “% viability after treatment with 10 micromolar of test compound (SKOV-3 cells)” value in the data set with SKOV-3 cancer cell lines (10 micromolar test compound, hydrochloride) is listed as “A (A=0-25% viability)”.

For `CN[C@@H](C)C(=O)N[C@H]1CCS[C@H]2CC3(CCCC3)[C@@H](C(=O)N[C@@H]3CCCc4ccccc43)N2C1=O` [Compound 80, (4'S,7'S,9a'S)-4′-((S)-2-(methylamino)propanamido)-5′-oxo-N—((R)-1,2,3,4-tetrahydronaphthalen-1-yl)hexahydro-7′H-spiro[cyclopentane-1,8′-pyrrolo[2,1-b][1,3]thiazepine]-7′-carboxamide hydrochloride], the concentration for a half-maximal effect (EC50) with Caspase 9 (SKOV-3), in the data set on Caspase 3/7 (OVCAR-4) and with Caspase 3/7 (SKOV-3) was < 1 nM in each case. The IC50 is 1 to 10 nM in the data set on OVCAR-4 and < 1 nM with SKOV-3. Moreover, the Ki at XIAP-BIR3 lay in the range of 10 to 100 nM. Also, in [1], the “PK plasma exposure at 1 h (IP, 10 mg/kg)” value was “iii (iii=500-1000 nM)”. The viability at 10 µM in the data set on SKOV-3 cancer cell lines was in the range of 0 to 25%.

The values above are taken from US20230295181A1, “INHIBITOR OF APOPTOSIS (IAP) PROTEIN ANTAGONISTS” (Sanford Burnham Prebys Medical Discovery Institute, priority 2020, published 2023).
